The values that follow come from patent US9040545B2, “Heterocyclyl pyrazolopyrimidine analogues as selective JAK inhibitors” (Cellzome Limited, priority 2010, dated 2015).

This assay deals with T1, Aurora B (Homo sapiens, UniProt Q96GD4).
T1 construct: cell lysates from Jurkat cells (ATCC TIB-152) used; endogenous in cells; host or cells: Jurkat cells (ATCC TIB-152), treated with pervanadate
The assay can be described thus: Kinobeads assay, Aurora B. In kind it is binding. The settings on record: for IC50: lysate of pervanadate-treated Jurkat cells, read-out: Inhibition values (IC50) Aur B. How it is done: The compounds of the present invention as described in the previous examples were tested in a Kinobeads™ assay as described for ZAP-70 (WO-A 2007/137867). Briefly, test compounds (at various concentrations) and the affinity matrix with the immobilized aminopyrido-pyrimidine ligand 24 were added to cell lysate aliquots and allowed to bind to the proteins in the lysate sample. After the incubation time the beads with captured proteins were separated from the lysate. Bound proteins were then eluted and the presence of JAK2 and JAK3 was detected and quantified using specific antibodies in a dot blot procedure and the Odyssey infrared detection system. Dose response curves for individual kinases were generated and IC50 values calculated. Kinobeads™ assays for ZAP-70 (WO-A 2007/137867) and for kinase selectivity profiling (WO-A 2006/134056) have been previously described.
The affinity matrix was washed two times with 15 mL of 1×DP buffer containing 0.2% NP40 (IGEPAL® CA-630, Sigma, #I3021) and then resuspended in 1×DP buffer containing 0.2% NP40 (3% beads slurry).
5×DP buffer 250 mM Tris-HCl pH 7.4, 25% Glycerol, 7.5 mM MgCl2, 750 mM NaCl, 5 mM Na3VO4; filter the 5×DP buffer through a 0.22 μm filter and store in aliquots at −80° C. The 5×DP buffer is diluted with H2O to 1×DP buffer containing 1 mM DTT and 25 mM NaF.
Stock solutions of test compounds were prepared in DMSO. In a 96 well plate 30 μL solution of diluted test compounds at 5 mM in DMSO were prepared. Starting with this solution a 1:3 dilution series (9 steps) was prepared. For control experiments (no test compound) a buffer containing 2% DMSO was used.
Cell lysate (approximately 50 mg protein per plate) was thawed in a water bath at room temperature and then stored on ice. To the thawed cell lysate 1×DP 0.8% NP40 buffer containing protease inhibitors (1 tablet for 25 mL buffer; EDTA-free protease inhibitor cocktail; Roche Diagnostics 1873580) was added in order to reach a final protein concentration of 10 mg/mL total protein. The diluted cell lysate was stored on ice. Mixed Molt4/Ramos lysate was prepared by combining one volume of Molt4 lysate and two volumes of Ramos lysate (ratio 1:2).
To a 96 well filter plate (Multiscreen HTS, BV Filter Plates, Millipore #MSBVN1250) were added per well: 100 μL affinity matrix (3% beads slurry), 3 μL of compound solution, and 50 μL of diluted lysate. Plates were sealed and incubated for 3 hours in a cold room on a plate shaker (Heidolph tiramax 1000) at 750 rpm. Afterwards the plate was washed 3 times with 230 μL washing buffer (1×DP 0.4% NP40). The filter plate was placed on top of a collection 1 plate (Greiner bio-one, PP-microplate 96 well V-shape, 65120) and the beads were then eluted with 20 μL of sample buffer (100 mM Tris, pH 7.4, 4% SDS, 0.00025% bromophenol blue, 20% glycerol, 50 mM DTT). The eluate was frozen quickly at −80° C. and stored at −20° C.
The kinases in the eluates were detected and quantified by spotting on nitrocellulose membranes and using a first antibody directed against the kinase of interest and a fluorescently labelled secondary antibody (anti-rabbit IRDye™ antibody 800 (Licor, #926-32211). The Odyssey Infrared Imaging system from LI-COR Biosciences (Lincoln, Nebr., USA) was operated according to instructions provided by the manufacturer (Schutz-Geschwendener et al, 2004. Quantitative, two-color Western blot detection with infrared fluorescence. Published May 2004 by LI-COR Biosciences, www.licor.com).
After spotting of the eluates the nitrocellulose membrane (BioTrace NT; PALL, #BTNT30R) was first blocked by incubation with Odyssey blocking buffer (LICOR, 927-40000) for 1 hour at room temperature. Blocked membranes were then incubated for 16 hours at the temperature shown in Table 5 with the first antibody diluted in Odyssey blocking buffer (LICOR #927-40000). Afterwards the membrane was washed twice for 10 minutes with PBS buffer containing 0.2% Tween 20 at room temperature. […]

T1 sequence (Q96GD4 whole entry): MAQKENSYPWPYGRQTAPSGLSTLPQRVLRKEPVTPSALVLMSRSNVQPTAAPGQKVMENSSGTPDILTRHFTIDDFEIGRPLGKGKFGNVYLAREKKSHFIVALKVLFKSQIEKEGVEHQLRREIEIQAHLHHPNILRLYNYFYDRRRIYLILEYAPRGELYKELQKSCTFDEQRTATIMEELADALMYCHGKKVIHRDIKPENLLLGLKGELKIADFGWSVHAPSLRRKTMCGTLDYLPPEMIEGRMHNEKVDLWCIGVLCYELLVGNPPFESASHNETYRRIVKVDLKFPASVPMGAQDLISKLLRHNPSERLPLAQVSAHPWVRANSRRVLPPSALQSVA

As to `Cn1cc(Nc2ncc3cnn(Cc4cc(F)cc(N5CC6(COC6)C5)c4)c3n2)cn1` [Example 90, 1-(3-fluoro-5-(2-oxa-6-azaspiro[3.3]heptan-6-yl)benzyl)-N-(1-methyl-1H-pyrazol-4-yl)-1H-pyrazolo[3,4-d]pyrimidin-6-amine], the “JAK3/AurB Fold Selectivity” value is more than 50 Fold and the IC50 lay within 1 to 10 µM.

In the case of `Cn1cc(Nc2ncc3cnn(Cc4cccc(N5CC6(COC6)C5)c4F)c3n2)cn1` [Example 91, 1-(2-fluoro-3-(2-oxa-6-azaspiro[3.3]heptan-6-yl)benzyl)-N-(1-methyl-1H-pyrazol-4-yl)-1H-pyrazolo[3,4-d]pyrimidin-6-amine], the “JAK3/AurB Fold Selectivity” value was more than 50 Fold and the half-maximal inhibitory concentration (IC50) was 1 to 10 µM.

For the molecule `Cn1cc(Nc2ncc3cnn(Cc4cc(F)cc(N5CCNCC5)c4)c3n2)cn1` [Example 92, 1-(3-fluoro-5-(piperazin-1-yl)benzyl)-N-(1-methyl-1H-pyrazol-4-yl)-1H-pyrazolo[3,4-d]pyrimidin-6-amine], the “JAK3/AurB Fold Selectivity” value was more than 50 Fold and the IC50 lay in the range of 0.1 to 1 µM.

On to `OCCn1cc(Nc2ncc3cnn(Cc4cc(F)cc(N5CCNCC5)c4)c3n2)cn1` [Example 93, 2-(4-((1-(3-fluoro-5-(piperazin-1-yl)benzyl)-1H-pyrazolo[3,4-d]pyrimidin-6-yl)amino)-1H-pyrazol-1-yl)ethanol], for which the “JAK3/AurB Fold Selectivity” value is reported as 10-50 Fold and the IC50 was 0.1 to 1 µM.

As to `Fc1cc(N2CCOCC2)c(F)c(Cn2ncc3cnc(Nc4cnn(CC5CCNC5)c4)nc32)c1F` (centres unmarked) [Example 94, N-(1-(pyrrolidin-3-ylmethyl)-1H-pyrazol-4-yl)-1-(2,3,6-trifluoro-5-morpholinobenzyl)-1H-pyrazolo[3,4-d]pyrimidin-6-amine], the “JAK3/AurB Fold Selectivity” value is more than 50 Fold and the concentration for half-maximal inhibition (IC50) is 1 to 10 µM.

With `Cn1cc(Nc2ncc3cnn(Cc4cc(F)cc(N5CCNCC5)c4F)c3n2)cn1` [Example 95, 1-(2,5-difluoro-3-(piperazin-1-yl)benzyl)-N-(1-methyl-1H-pyrazol-4-yl)-1H-pyrazolo[3,4-d]pyrimidin-6-amine], the “JAK3/AurB Fold Selectivity” value is reported as 10-50 Fold and the IC50 lay within 0.1 to 1 µM.

As for `OCCn1cc(Nc2ncc3cnn(Cc4cc(F)cc(N5CCNCC5)c4F)c3n2)cn1` [Example 96, 2-(4-((1-(2,5-difluoro-3-(piperazin-1-yl)benzyl)-1H-pyrazolo[3,4-d]pyrimidin-6-yl)amino)-1H-pyrazol-1-yl)ethanol], the “JAK3/AurB Fold Selectivity” value was more than 50 Fold and the IC50 was not below 10 µM.

On to `CN(C)CC(F)Cn1cc(Nc2ncc3cnn(Cc4cc(F)cc(N5CCOCC5=O)c4)c3n2)cn1` (centres unmarked) [Example 97, 4-(3-((6-((1-(3-(dimethylamino)-2-fluoropropyl)-1H-pyrazol-4-yl)amino)-1H-pyrazolo[3,4-d]pyrimidin-1-yl)methyl)-5-fluorophenyl)morpholin-3-one], for which the “JAK3/AurB Fold Selectivity” value was more than 50 Fold and the IC50 lay in the range of 1 to 10 µM.

`Cn1cc(Nc2ncc3cnn(Cc4cc(C(=O)N5CCOCC5)cc(F)c4F)c3n2)cn1` [Example 98, (3,4-difluoro-5-((6-((1-methyl-1H-pyrazol-4-yl)amino)-1H-pyrazolo[3,4-d]pyrimidin-1-yl)methyl)phenyl)(morpholino)methanone]: the “JAK3/AurB Fold Selectivity” value is reported as 3-10 Fold and the concentration for half-maximal inhibition (IC50) was less than 0.1 µM.

Consider `CNCCCn1cc(Nc2ncc3cnn(Cc4cc(F)cc(N5CCOCC5=O)c4)c3n2)cn1` [Example 99, 4-(3-fluoro-5-((6-((1-(3-(methylamino)propyl)-1H-pyrazol-4-yl)amino)-1H-pyrazolo[3,4-d]pyrimidin-1-yl)methyl)phenyl)morpholin-3-one], for which the “JAK3/AurB Fold Selectivity” value is on record as 3-10 Fold and the IC50 was less than 0.1 µM.

Consider `Cn1cc(Nc2ncc3cnn(Cc4cccc(N5CCN(S(C)(=O)=O)CC5)c4)c3n2)cn1` [Example 100, N-(1-methyl-1H-pyrazol-4-yl)-1-(3-(4-(methylsulfonyl)piperazin-1-yl)benzyl)-1H-pyrazolo[3,4-d]pyrimidin-6-amine], for which the “JAK3/AurB Fold Selectivity” value is 10-50 Fold and the IC50 is 1 to 10 µM.

As to `O=C1COCCN1c1cc(F)cc(Cn2ncc3cnc(Nc4cnn(CC5CCNC5)c4)nc32)c1` (centres unmarked) [Example 101, 4-(3-fluoro-5-((6-((1-(pyrrolidin-3-ylmethyl)-1H-pyrazol-4-yl)amino)-1H-pyrazolo[3,4-d]pyrimidin-1-yl)methyl)phenyl)morpholin-3-one], the “JAK3/AurB Fold Selectivity” value is on record as 10-50 Fold and the IC50 was in the range of 0.1 to 1 µM.

In the case of `O=C1COCCN1c1cc(F)cc(Cn2ncc3cnc(Nc4cnn(C5CCNCC5)c4)nc32)c1` [Example 102, 4-(3-fluoro-5-((6-((1-(piperidin-4-yl)-1H-pyrazol-4-yl)amino)-1H-pyrazolo[3,4-d]pyrimidin-1-yl)methyl)phenyl)morpholin-3-one], the “JAK3/AurB Fold Selectivity” value is 10-50 Fold and the IC50 fell in the range of 0.1 to 1 µM.

Regarding `Cn1cc(Nc2ncc3cnn(Cc4cccc(N5CCOCC5)c4Cl)c3n2)cn1` [Example 103, 1-(2-chloro-3-morpholinobenzyl)-N-(1-methyl-1H-pyrazol-4-yl)-1H-pyrazolo[3,4-d]pyrimidin-6-amine], the “JAK3/AurB Fold Selectivity” value is 3-10 Fold and the IC50 is 0.1 to 1 µM.

On to `Cn1cc(Nc2ncc3cnn(Cc4cccc(N5CCC6(COC6)C5)c4)c3n2)cn1` [Example 104, 1-(3-(2-oxa-6-azaspiro[3.4]octan-6-yl)benzyl)-N-(1-methyl-1H-pyrazol-4-yl)-1H-pyrazolo[3,4-d]pyrimidin-6-amine], for which the “JAK3/AurB Fold Selectivity” value is listed as 10-50 Fold and the IC50 lay within 1 to 10 µM.

As to `O=C1CC(Cn2cc(Nc3ncc4cnn(Cc5cc(F)cc(N6CCOCC6=O)c5)c4n3)cn2)CN1` (centres unmarked) [Example 105, 4-(3-fluoro-5-((6-((1-((5-oxopyrrolidin-3-yl)methyl)-1H-pyrazol-4-yl)amino)-1H-pyrazolo[3,4-d]pyrimidin-1-yl)methyl)phenyl)morpholin-3-one], the “JAK3/AurB Fold Selectivity” value was more than 50 Fold and the concentration for half-maximal inhibition (IC50) was 0.1 to 1 µM.

As to `O=C1COCCN1c1cc(F)cc(Cn2ncc3cnc(Nc4cnn(CCS(=O)(=O)NC5CC5)c4)nc32)c1` [Example 106, N-cyclopropyl-2-(4-((1-(3-fluoro-5-(3-oxomorpholino)benzyl)-1H-pyrazolo[3,4-d]pyrimidin-6-yl)amino)-1H-pyrazol-1-yl)ethanesulfonamide], the “JAK3/AurB Fold Selectivity” value is recorded as 10-50 Fold and the IC50 lay in the range of 0.1 to 1 µM.

Consider `N#CCCn1cc(Nc2ncc3cnn(Cc4cc(F)cc(N5CCOCC5=O)c4)c3n2)cn1` [Example 107, 3-(4-((1-(3-fluoro-5-(3-oxomorpholino)benzyl)-1H-pyrazolo[3,4-d]pyrimidin-6-yl)amino)-1H-pyrazol-1-yl)propanenitrile], for which the “JAK3/AurB Fold Selectivity” value is given as 10-50 Fold and the IC50 was in the range of 0.1 to 1 µM.

Take `Cn1cc(Nc2ncc3cnn(Cc4cccc(N5CCC(=O)CC5)c4)c3n2)cn1` [Example 108, 1-(3-((6-((1-methyl-1H-pyrazol-4-yl)amino)-1H-pyrazolo[3,4-d]pyrimidin-1-yl)methyl)phenyl)piperidin-4-one]: the “JAK3/AurB Fold Selectivity” value is 10-50 Fold and the 50% inhibitory concentration (IC50) was 1 to 10 µM.

One may read the IC50 as the point on the concentration scale where inhibition reaches its midpoint.
